Like-named read-outs stand apart in the source and are kept apart here.
Experiments:
[1] = molecular target: human JAK1 (a.a. 837-1142) (Homo sapiens, UniProt P23458); assay: In vitro JAK kinase assay (HTRF, phosphorylation of biotinylated peptide), JAK1; type: biochemical
Outline: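 His-tagged human JAK1 catalytic domain (a.a. 837-1142), baculovirus/insect-cell expressed, phosphorylates a biotinylated peptide for 1 h at room temperature. Reaction stopped with EDTA; product detected by HTRF (SA-APC, Eu-Py20, 40 min binding). IC50 reported as ranges.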

JAK2 (a.a. 828-1132) = molecular target: T1, JAK2 (a.a. 828-1132) (Homo sapiens, UniProt O60674); assay: In vitro JAK kinase assay (HTRF, phosphorylation of biotinylated peptide), JAK2; type: biochemical
T1 construct: JAK2 (a.a. 828-1132); His tag (N)
T1 sequence (O60674 828-1132): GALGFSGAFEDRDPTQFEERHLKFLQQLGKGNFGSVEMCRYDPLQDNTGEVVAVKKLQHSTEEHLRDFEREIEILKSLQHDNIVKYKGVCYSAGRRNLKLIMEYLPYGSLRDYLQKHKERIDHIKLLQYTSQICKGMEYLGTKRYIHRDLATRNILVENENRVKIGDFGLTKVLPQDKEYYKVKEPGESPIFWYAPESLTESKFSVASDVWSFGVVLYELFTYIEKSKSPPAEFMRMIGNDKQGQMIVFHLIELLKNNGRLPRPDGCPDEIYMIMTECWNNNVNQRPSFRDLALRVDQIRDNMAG
Outline: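 His-tagged catalytic domains of human JAK1 (a.a. 837-1142) and JAK2 (a.a. 828-1132), baculovirus-expressed, phosphorylate a biotinylated peptide for 1 hour at room temperature. Stopped with EDTA; detected by HTRF using SA-APC and Eu-Py20 antibody after 40 min binding; values binned as ranges.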

[2] = Table B, 1 mM ATP, read-out: JAK1 IC50
[3] = Table B, 1 mM ATP, read-out: JAK2 IC50

Sequence of human JAK1 (a.a. 837-1142) (P23458 849-1154): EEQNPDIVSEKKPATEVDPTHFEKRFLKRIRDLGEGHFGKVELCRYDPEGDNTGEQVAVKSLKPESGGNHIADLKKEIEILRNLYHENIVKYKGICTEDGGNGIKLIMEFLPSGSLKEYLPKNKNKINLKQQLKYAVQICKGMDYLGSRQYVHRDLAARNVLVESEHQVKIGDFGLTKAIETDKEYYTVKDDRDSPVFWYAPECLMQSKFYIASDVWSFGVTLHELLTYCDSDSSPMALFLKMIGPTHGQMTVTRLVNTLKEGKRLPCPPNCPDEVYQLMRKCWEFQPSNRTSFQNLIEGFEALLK

IC50 ([1]; Table F, 1 mM ATP) [nM]	IC50 (JAK2 (a.a. 828-1132); Table F, 1 mM ATP) [nM]	SMILES	other results
–	–	N#CC[C@]1(n2cc(-c3ncnc4[nH]ccc34)cn2)C[C@H](N2CCN(C(=O)c3ccc(F)c(F)c3)CC2)C1 [Example 15b, {trans-3-[4-(3,4-difluorobenzoyl)piperazin-1-yl]-1-[4-(7H-pyrrolo[2,3-d]pyrimidin-4-yl)-1H-pyrazol-1-yl]cyclobutyl}acetonitrile]	IC50 [1, 2]: < 10 nM; IC50 (JAK2 (a.a. 828-1132); [3]): 10 to 25 nM
< 10	> 100	N#CC[C@]1(n2cc(-c3ncnc4[nH]ccc34)cn2)C[C@H](N2CCC(Oc3cc(C#N)cc(C(F)(F)F)n3)CC2)C1 (single isomer, unassigned) [Example 134, 2-1(1-{trans-3-(cyanomethyl)-3-[4-(7H-pyrrolo[2,3-d]pyrimidin-4-yl)-1H-pyrazol-1-yl]cyclobutyl}piperidin-4-yl)oxyl-6-(trifluoromethyl)isonicotinonitrile]	–
< 10	10 to 25	CC(C)(C)NCc1cc(C(=O)N2CCN([C@H]3C[C@](CC#N)(n4cc(-c5ncnc6[nH]ccc56)cn4)C3)CC2)nc(C(F)(F)F)n1 [Example 57, {trans-3-(4-{[6-[(tert-butylamino)methyl]-2-(trifluoromethyl)pyrimidin-4-yl]carbonyl}piperazin-1-yl)-1-[4-(7H-pyrrolo[2,3-d]pyrimidin-4-yl)-1H-pyrazol-1-yl]cyclobutyl}acetonitrile]	–
10 to 25	> 100	N#CC[C@]1(n2cc(-c3ncnc4[nH]ccc34)cn2)C[C@H](N2CCN(C(=O)N[C@@H]3CCOC3)CC2)C1 [Example 87, 4-{trans-3-(cyanomethyl)-3-[4-(7H-pyrrolo[2,3-d]pyrimidin-4-yl)-1H-pyrazol-1-yl]cyclobutyl}-N-[(3R)-tetrahydrofuran-3-yl]piperazine-1-carboxamide]	–
–	–	N#CC[C@]1(n2cc(-c3ncnc4[nH]ccc34)cn2)C[C@@H](N2CCN(C(=O)c3cccc(C(F)(F)F)n3)CC2)C1 [Example 20a, {cis-1-[4-(7H-pyrrolo[2,3-d]pyrimidin-4-yl)-1H-pyrazol-1-yl]-3-(4-{[6-(trifluoromethyl)pyridin-2-yl]carbonyl}piperazin-1-yl)cyclobutyl}acetonitrile]	IC50 ([1]; Table A, 1 mM ATP, read-out: JAK1 IC50): < 10 nM; IC50 (JAK2 (a.a. 828-1132); Table A, 1 mM ATP, read-out: JAK2 IC50): 25 to 100 nM
< 10	25 to 100	N#CC[C@]1(n2cc(-c3ncnc4[nH]ccc34)cn2)C[C@H](N2CCN(C(=O)c3cc(CO)cc(C(F)(F)F)n3)CC2)C1 [Example 66, {trans-3-(4-{[4-(hydroxymethyl)-6-(trifluoromethyl)pyridin-2-yl]carbonyl}piperazin-1-yl)-1-[4-(7H-pyrrolo[2,3-d]pyrimidin-4-yl)-1H-pyrazol-1-yl]cyclobutyl}acetonitrile]	–
–	–	N#CC[C@]1(n2cc(-c3ncnc4[nH]ccc34)cn2)C[C@H](N2CCN(S(=O)(=O)C3CC3)CC2)C1 [Example 36, {trans-3-[4-(cyclopropylsulfonyl)piperazin-1-yl]-1-[4-(7H-pyrrolo[2,3-d]pyrimidin-4-yl)-1H-pyrazol-1-yl]cyclobutyl}acetonitrile]	IC50 [1, 2]: < 10 nM; IC50 (JAK2 (a.a. 828-1132); [3]): < 10 nM
< 10	25 to 100	CC(C)NC(=O)N1CCN([C@H]2C[C@](CC#N)(n3cc(-c4ncnc5[nH]ccc45)cn3)C2)CC1 [Example 85, 4-{trans-3-(cyanomethyl)-3-[4-(7H-pyrrolo[2,3-d]pyrimidin-4-yl)-1H-pyrazol-1-yl]cyclobutyl}-N-isopropylpiperazine-1-carboxamide]	–
< 10	10 to 25	CS(=O)(=O)N1CCN([C@H]2C[C@](CC#N)(n3cc(-c4ncnc5[nH]ccc45)cn3)C2)CC1 [Example 119, {trans-3-[4-(methylsulfonyl)piperazin-1-yl]-1-[4-(7H-pyrrolo[2,3-d]pyrimidin-4-yl)-1H-pyrazol-1-yl]cyclobutyl}acetonitrile]	–
–	–	N#CC[C@]1(n2cc(-c3ncnc4[nH]ccc34)cn2)C[C@H](N2CCN(C(=O)c3nc(C(F)(F)F)cs3)CC2)C1 [Example 13b, [trans-1-[4-(7H-pyrrolo[2,3-d]pyrimidin-4-yl)-1H-pyrazol-1-yl]-3-(4-{[4-(trifluoromethyl)-1,3-thiazol-2-yl]carbonyl}piperazin-1-yl)cyclobutyl]acetonitrile]	IC50 [1, 2]: < 10 nM; IC50 (JAK2 (a.a. 828-1132); [3]): 25 to 100 nM
25 to 100	> 100	CN(C)Cc1cc(CN2CCN([C@H]3C[C@@](CC#N)(n4cc(-c5ncnc6[nH]ccc56)cn4)C3)CC2)cc(C(F)(F)F)c1 [Example 46, {cis-3-{4-[3-[(dimethylamino)methyl]-5-(trifluoromethyl)benzyl]piperazin-1-yl}-1-[4-(7H-pyrrolo[2,3-d]pyrimidin-4-yl)-1H-pyrazol-1-yl]cyclobutyl}acetonitrile]	–
10 to 25	> 100	CN(C)CCCN(C)C(=O)N1CCN([C@H]2C[C@](CC#N)(n3cc(-c4ncnc5[nH]ccc45)cn3)C2)CC1 [Example 82, 4-{trans-3-(cyanomethyl)-3-[4-(7H-pyrrolo[2,3-d]pyrimidin-4-yl)-1H-pyrazol-1-yl]cyclobutyl}-N-[3-(dimethylamino)propyl]-N-methylpiperazine-1-carboxamide]	–
–	–	N#CC[C@]1(n2cc(-c3ncnc4[nH]ccc34)cn2)C[C@H](N2CCN(C(=O)c3cc(F)cnc3Cl)CC2)C1 [Example 9b, {trans-3-{4-[(2-chloro-5-fluoropyridin-3-yl)carbonyl]piperazin-1-yl}-1-[4-(7H-pyrrolo[2,3-d]pyrimidin-4-yl)-1H-pyrazol-1-yl]cyclobutyl}acetonitrile]	IC50 [1, 2]: < 10 nM; IC50 (JAK2 (a.a. 828-1132); [3]): 10 to 25 nM
< 10	> 100	N#CC[C@]1(n2cc(-c3ncnc4[nH]ccc34)cn2)C[C@H](N2CCC(Oc3cc(CN4CCC[C@@H]4CO)cc(C(F)(F)F)n3)CC2)C1 [Example 162, {trans-3-(4-{[4-{[(2R)-2-(hydroxymethyl)pyrrolidin-1-yl]methyl}-6-(trifluoromethyl)pyridin-2-yl]oxy}piperidin-1-yl)-1-[4-(7H-pyrrolo[2,3-d]pyrimidin-4-yl)-1H-pyrazol-1-yl]cyclobutyl}acetonitrile]	–
10 to 25	25 to 100	CCNCc1cc(OC2CCN([C@H]3C[C@](CC#N)(n4cc(-c5ncnc6[nH]ccc56)cn4)C3)CC2)nc(C(F)(F)F)n1 [Example 143, {trans-3-(4-{[6-[(ethylamino)methyl]-2-(trifluoromethyl)pyrimidin-4-yl]oxy}piperidin-1-yl)-1-[4-(7H-pyrrolo[2,3-d]pyrimidin-4-yl)-1H-pyrazol-1-yl]cyclobutyl}acetonitrile]	–
–	–	N#CC[C@]1(n2cc(-c3ncnc4[nH]ccc34)cn2)C[C@H](N2CCN(C(=O)c3cncc(C(F)(F)F)n3)CC2)C1 [Example 14b, [trans-1-[4-(7H-pyrrolo[2,3-d]pyrimidin-4-yl)-1H-pyrazol-1-yl]-3-(4-{[6-(trifluoromethyl)pyrazin-2-yl]carbonyl}piperazin-1-yl)cyclobutyl]acetonitrile]	IC50 [1, 2]: < 10 nM; IC50 (JAK2 (a.a. 828-1132); [3]): 25 to 100 nM
25 to 100	> 100	N#CC[C@]1(n2cc(-c3ncnc4[nH]ccc34)cn2)C[C@@H](N2CCC(Oc3cc(CN4CCOC4=O)cc(C(F)(F)F)n3)CC2)C1 (single isomer, unassigned) [Example 165, peak 1, {cis-3-(4-{[4-[(2-oxo-1,3-oxazolidin-3-yl)methyl]-6-(trifluoromethyl)pyridin-2-yl]oxy}piperidin-1-yl)-1-[4-(7H-pyrrolo[2,3-d]pyrimidin-4-yl)-1H-pyrazol-1-yl]cyclobutyl}acetonitrile]	–
< 10	> 100	CN(C)Cc1cc(C#N)cc(C(=O)N2CCN([C@H]3C[C@@](CC#N)(n4cc(-c5ncnc6[nH]ccc56)cn4)C3)CC2)c1 [Example 42, 3-[(4-{cis-3-(cyanomethyl)-3-[4-(7H-pyrrolo[2,3-d]pyrimidin-4-yl)-1H-pyrazol-1-yl]cyclobutyl}piperazin-1-yl)carbonyl]-5-[(dimethylamino)methyl]benzonitrile]	–
–	–	CN(C)c1ccc(CN2CCN([C@H]3C[C@](CC#N)(n4cc(-c5ncnc6[nH]ccc56)cn4)C3)CC2)c(F)c1C#N [Example 2b, 3-[(4-{trans-3-(cyanomethyl)-3-[4-(7H-pyrrolo[2,3-d]pyrimidin-4-yl)-1H-pyrazol-1-yl]cyclobutyl}piperazin-1-yl)methyl]-6-(dimethylamino)-2-fluorobenzonitrile]	IC50 [1, 2]: < 10 nM; IC50 (JAK2 (a.a. 828-1132); [3]): 25 to 100 nM
< 10	25 to 100	N#CC[C@]1(n2cc(-c3ncnc4[nH]ccc34)cn2)C[C@H](N2CCC(Oc3cc(CN4CCOC4=O)cc(C(F)(F)F)n3)CC2)C1 (single isomer, unassigned) [Example 165, peak 2, {trans-3-(4-{[4-[(2-oxo-1,3-oxazolidin-3-yl)methyl]-6-(trifluoromethyl)pyridin-2-yl]oxy}piperidin-1-yl)-1-[4-(7H-pyrrolo[2,3-d]pyrimidin-4-yl)-1H-pyrazol-1-yl]cyclobutyl}acetonitrile]	–
–	–	N#CCC1(n2cc(-c3ncnc4[nH]ccc34)cn2)CC(N2CCC(Oc3cc(CCO)nc(C(F)(F)F)n3)CC2)C1 (single isomer, unassigned; peak 1) [Example 164, peak 1, {trans-3-(4-{[6-(2-hydroxyethyl)-2-(trifluoromethyl)pyrimidin-4-yl]oxy}piperidin-1-yl)-1-[4-(7H-pyrrolo[2,3-d]pyrimidin-4-yl)-1H-pyrazol-1-yl]cyclobutyl}acetonitrile]	IC50 ([1]; read-out: JAK1 IC50 (nM) at 1 mM ATP, Table F, listed as 164, peak 1): 10 to 25 nM; IC50 (JAK2 (a.a. 828-1132); read-out: JAK2 IC50 (nM) at 1 mM ATP, Table F): > 100 nM

Reference: patent publication US10640506B2, “Cyclobutyl substituted pyrrolopyridine and pyrrolopyrimidines derivatives as JAK inhibitors” (Incyte Corporation, priority 2010, dated 2020)
